Experimental data: US20050192314A1, “Urea derivatives as C-kit modulators” (Ambit Biosciences Corporation, priority 2003, published 2005)

Target: T1, KIT(DKIN) (Homo sapiens, UniProt P10721)
T1 construct: KIT(DKIN); made in house
Test: Binding constant (Kd) measurement, phage-displayed kinase competition binding assay: KIT(DKIN)
From the text: The term “ND” represents non-determined values.

T1 sequence (P10721 589-937 limits assumed): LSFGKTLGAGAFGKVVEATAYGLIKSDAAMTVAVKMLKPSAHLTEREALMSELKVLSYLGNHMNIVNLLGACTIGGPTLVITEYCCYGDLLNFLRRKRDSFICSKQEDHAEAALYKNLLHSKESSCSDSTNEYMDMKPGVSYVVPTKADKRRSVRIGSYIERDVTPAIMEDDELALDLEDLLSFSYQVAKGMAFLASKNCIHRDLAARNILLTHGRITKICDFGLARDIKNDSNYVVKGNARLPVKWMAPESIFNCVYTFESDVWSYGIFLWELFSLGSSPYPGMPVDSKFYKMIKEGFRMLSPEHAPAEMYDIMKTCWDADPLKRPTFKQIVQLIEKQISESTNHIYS

Row | Compound | Kd
1 | CC(C)(C)c1cc(NC(=O)Nc2ccc(NC(=O)c3cc4cc(Br)ccc4s3)cc2)no1 [Compound N126] | 1 to 10 µM
2 | CC(C)(C)c1cc(NC(=O)Nc2ccc(Cl)cc2)on1 [Compound A32] | 0.1 to 1 µM
3 | CC(C)(C)c1cc(NC(=O)Nc2ccc(OC/C=C/c3ccccc3Cl)cc2)no1 [Compound G26] | 0.1 to 1 µM
4 | CC(C)(C)c1cc(NC(=O)Nc2ccc(OCc3ccccc3-c3ccccc3)cc2)no1 [Compound G8] | 1 to 10 µM
5 | Cc1ccc(NC(=O)Nc2cc(C(C)(C)C)on2)cc1 [Compound A33] | 0.1 to 1 µM
6 | Cc1ccc(NC(=O)Nc2cc(C(F)(F)F)cc(Cl)n2)cc1 [Compound W1] | 0.1 to 1 µM
7 | Cc1ccc(-n2nc(C(C)(C)C)cc2NC(=O)Nc2ccc(Cl)cc2)cc1 [Compound H14] | 1 to 10 µM
8 | Cc1nn(C)c(Cl)c1C(=O)Nc1ccc(NC(=O)Nc2cc(C(C)(C)C)on2)cc1 [Compound N116] | 0.1 to 1 µM
9 | COC(=O)c1ccc(C(=O)Nc2ccc(NC(=O)Nc3cc(C(C)(C)C)on3)cc2)nc1 [Compound N113] | < 0.1 µM
10 | CC(C)(C)c1cc(NC(=O)Nc2ccc(NC(=O)c3ccnc4ccccc34)cc2)no1 [Compound N141] | 0.1 to 1 µM
11 | CC(C)(C)c1cc(NC(=O)Nc2ccc(NC(=O)c3ccncc3)cc2)no1 [Compound N167] | 0.1 to 1 µM
12 | CC(C)(C)c1cc(NC(=O)Nc2ccc(NC(=O)c3cc(Cl)nc(Cl)c3)cc2)no1 [Compound N132] | 1 to 10 µM
13 | O=C(Nc1ccc(Cl)cc1)Nc1cc(C(F)(F)F)cc(Cl)n1 [Compound Z76] | 0.1 to 1 µM
14 | Cc1ccc(-n2nc(C(C)(C)C)cc2NC(=O)Nc2ccc(OCc3ccccc3)cc2)cc1 [Compound H5] | > 10 µM
15 | CC(C)(C)c1cc(NC(=O)Nc2ccc(C(N)=O)cc2)no1 [Compound N86] | 0.1 to 1 µM
16 | Cn1nc(C(C)(C)C)cc1NC(=O)Nc1ccc(OCc2ccccc2)cc1 [Compound H2] | 0.1 to 1 µM
17 | CC(C)(C)c1cc(NC(=O)Nc2ccc(OCc3ccccc3)cc2)no1 [Compound G31] | < 0.1 µM
18 | CSc1ncc(Br)c(C(=O)Nc2ccc(NC(=O)Nc3cc(C(C)(C)C)on3)cc2)n1 [Compound N114] | 0.1 to 1 µM
19 | CC(C)(C)c1cc(NC(=O)Nc2ccc(-c3nc(-c4cccc5ccccc45)no3)cc2)no1 [Compound P5] | 1 to 10 µM
20 | CC(C)(C)c1cc(NC(=O)Nc2ccc(OCc3ccccc3)cc2)on1 [Compound G30] | 0.1 to 1 µM
21 | CNC(=O)c1ccc(NC(=O)Nc2cc(C(C)(C)C)on2)cc1 [Compound N85] | 0.1 to 1 µM

Row | Compound | Kd
22 | CC(C)(C)c1cc(NC(=O)Nc2ccc(NC(=O)c3cnc4ccccc4c3)cc2)no1 [Compound N108] | 0.1 to 1 µM
23 | CC(C)(C)c1cc(NC(=O)Nc2ccc3cc4ccccc4cc3c2)no1 [Compound A18] | 1 to 10 µM
24 | CC(C)(C)c1cc(NC(=O)Nc2ccc(OCCN3CCOCC3)c3ccccc23)no1 [Compound K1] | 1 to 10 µM
25 | CC(C)(C)c1cc(NC(=O)Nc2ccc(NC(=O)c3c4ccccc4nc4ccccc34)cc2)no1 [Compound N148] | 1 to 10 µM
26 | Cc1c(Cl)cccc1NC(=O)Nc1cc(C(C)(C)C)on1 [Compound A5] | 1 to 10 µM
27 | CC(C)(C)c1cc(NC(=O)Nc2ccc(C(=O)NCc3ccccc3)cc2)no1 [Compound N89] | 0.1 to 1 µM
28 | CC(C)(C)c1cc(NC(=O)Nc2ccc(NC(=O)c3ccccc3Cl)cc2)no1 [Compound N23] | < 0.1 µM
29 | CC(C)(C)c1cc(NC(=O)Nc2ccc(NC(=O)c3c(Cl)cccc3Cl)cc2)no1 [Compound N94] | 0.1 to 1 µM
30 | CC(C)(C)c1cc(NC(=O)Nc2ccc(NC(=O)c3c[nH]c(=O)nc3-c3ccncc3)cc2)no1 [Compound N19] | 1 to 10 µM
31 | CC(C)(C)c1cc(NC(=O)Nc2ccc(NC(=O)c3cccc4nsnc34)cc2)no1 [Compound N21] | < 0.1 µM
32 | Cc1noc(-c2ccc(NC(=O)Nc3cc(C(C)(C)C)on3)cc2)n1 [Compound P9] | < 0.1 µM
33 | CC(C)(C)c1cc(NC(=O)Nc2ccc(NC(=O)c3cc4cc(Br)ccc4s3)cc2)no1 [Compound N17] | 0.1 to 1 µM
34 | CC(C)(C)c1cc(NC(=O)Nc2ccc(NC(=O)c3cccc4c3OCCO4)cc2)no1 [Compound N111] | 1 to 10 µM
35 | CC(C)(C)c1cc(NC(=O)Nc2ccc(OCCN3CCOCC3)cc2)no1 [Compound G40] | 1 to 10 µM
36 | CC(C)(C)c1cc(NC(=O)Nc2ccc(NC(=O)c3ccc(Cl)nc3)cc2)no1 [Compound N125] | 1 to 10 µM
37 | CC(C)(C)c1cc(NC(=O)Nc2ccc(OCCN3CCSCC3)cc2)no1 [Compound G53] | 1 to 10 µM
38 | COc1ccc(NC(=O)Nc2cc(C(F)(F)F)cc(Cl)n2)cc1 [Compound Z71] | 0.1 to 1 µM
39 | Cc1ccc(-c2cc(C(=O)Nc3ccc(NC(=O)Nc4cc(C(C)(C)C)on4)cc3)c(C)o2)cc1 [Compound N120] | 1 to 10 µM
40 | CC(C)(C)c1cc(NC(=O)Nc2ccc(NC(=O)C3CCNCC3)cc2)no1 [Compound N150] | 1 to 10 µM
41 | Cc1sc(NC(=O)Nc2ccc(Cl)cc2)c(C(N)=O)c1C [Compound Z58] | 0.1 to 1 µM
42 | CC(C)(C)c1cc(NC(=O)Nc2ccc(F)cc2)no1 [Compound A47] | 1 to 10 µM

Row | Compound | Kd
43 | COC(=O)c1cccc(COc2ccc(NC(=O)Nc3cc(C(C)(C)C)on3)cc2)c1 [Compound G7] | 0.1 to 1 µM
44 | Cn1nc(C(C)(C)C)cc1C(=O)Nc1ccc(NC(=O)Nc2cc(C(C)(C)C)on2)cc1 [Compound N10] | 0.1 to 1 µM
45 | Cc1ccc(-n2nc(C(C)(C)C)cc2NC(=O)Nc2cc(C(C)(C)C)on2)cc1 [Compound H11] | > 10 µM
46 | CSc1ccc(NC(=O)Nc2cc(C(C)(C)C)on2)cc1 [Compound A37] | 0.1 to 1 µM
47 | CC(C)(C)c1cc(NC(=O)Nc2ccc(-c3ccccc3)cc2)no1 [Compound A23] | 0.1 to 1 µM
48 | CC(C)(C)c1cc(NC(=O)Nc2ccc(C(=O)Nc3ccc(OCC4CCC4)cc3)cc2)no1 [Compound N100] | 0.1 to 1 µM
49 | CC(C)(C)c1cc(NC(=O)Nc2ccc(Cl)cc2Cl)no1 [Compound A7] | 1 to 10 µM
50 | CC(C)(C)c1cc(NC(=O)Nc2ccc(NC(=O)c3nccnc3C(N)=O)cc2)no1 [Compound N138] | 0.1 to 1 µM
51 | CC(C)(C)c1cc(NC(=O)Nc2ccc(OCCN3CCCCC3)cc2)no1 [Compound G50] | > 10 µM
52 | Cc1ccc(CNc2ccc(NC(=O)Nc3cc(C(C)(C)C)on3)cc2)cc1 [Compound O9] | 0.1 to 1 µM
53 | CC(C)(C)c1cc(NC(=O)Nc2ccc(NC(=O)Cc3csc4ccccc34)cc2)no1 [Compound N107] | 1 to 10 µM
54 | CC(C)(C)c1cc(NC(=O)Nc2ccc(NC(=O)c3ccc4ncccc4c3)cc2)no1 [Compound N151] | 0.1 to 1 µM
55 | O=C(Nc1ccno1)Nc1ccc(Cl)cc1Cl [Compound Z12] | 1 to 10 µM
56 | COc1ccc(-c2noc(-c3ccc(NC(=O)Nc4cc(C(C)(C)C)on4)cc3)n2)c2ccccc12 [Compound P3] | 1 to 10 µM
57 | CCc1ccc(C(=O)Nc2ccc(NC(=O)Nc3cc(C(C)(C)C)on3)cc2)cc1 [Compound N32] | 0.1 to 1 µM
58 | Cc1nc(C(=O)Nc2ccc(NC(=O)Nc3cc(C(C)(C)C)on3)cc2)nn1-c1cc(Cl)cc(Cl)c1 [Compound N15] | > 10 µM
59 | CC(C)(C)c1cc(NC(=O)Nc2ccc(C(=O)Nc3ccccc3)cc2)no1 [Compound N90] | 0.1 to 1 µM
60 | CC(C)(C)c1cc(NC(=O)Nc2ccc(OCc3ccc4ccccc4c3)cc2)no1 [Compound G3] | 0.1 to 1 µM
61 | Cn1nc(C2CC2)cc1NC(=O)Nc1ccc(OCc2ccccc2)cc1 [Compound H7] | > 10 µM
62 | Cc1ccc(S(=O)(=O)Nc2ccc(NC(=O)Nc3cc(C(C)(C)C)on3)cc2)cc1 [Compound V2] | 1 to 10 µM
63 | C=C/C(=C\C=C\Cl)NC(=O)Nc1ccc(C(=O)OCCOC)cc1 [Compound Z54] | 1 to 10 µM

Row | Compound | Kd
64 | Cc1ccc(C(=O)Nc2ccc(NC(=O)Nc3cc(C(C)(C)C)on3)cc2)cn1 [Compound N142] | 0.1 to 1 µM
65 | CC(C)(C)c1cc(NC(=O)Nc2ccc(Cl)cc2)no1 [Compound A27] | 0.1 to 1 µM
66 | CC(C)(C)c1cc(NC(=O)Nc2ccc(NC(=O)c3ncccc3C(N)=O)cc2)no1 [Compound N6] | 1 to 10 µM
67 | Cc1ncccc1C(=O)Nc1ccc(NC(=O)Nc2cc(C(C)(C)C)on2)cc1 [Compound N145] | 0.1 to 1 µM
68 | CC(C)(C)c1cc(NC(=O)Nc2ccc(NC(=O)c3ccccc3)cc2)no1 [Compound N34] | 0.1 to 1 µM
69 | CC(C)(C)c1cc(NC(=O)Nc2ccc(OCc3ccc(OC(F)(F)F)cc3)cc2)no1 [Compound G5] | 0.1 to 1 µM
70 | COc1cccc(-c2ccc(C(=O)Nc3ccc(NC(=O)Nc4cc(C(C)(C)C)on4)cc3)o2)c1 [Compound N105] | 0.1 to 1 µM
71 | CCOC(=O)CCc1c(C)[nH]c(C(=O)Nc2ccc(NC(=O)Nc3cc(C(C)(C)C)on3)cc2)c1C [Compound N83] | 0.1 to 1 µM
72 | NC(=O)c1c(NC(=O)Nc2ccc(Cl)c(Cl)c2)sc2c1CCCC2 [Compound Z56] | > 10 µM
73 | CSc1ccc(NC(=O)Nc2cc(C(C)(C)C)no2)cc1 [Compound A39] | 0.1 to 1 µM
74 | COc1nc(C)cc(C)c1C(=O)Nc1ccc(NC(=O)Nc2cc(C(C)(C)C)on2)cc1 [Compound N22] | 1 to 10 µM
75 | C/C=C/C(=O)Nc1ccc(NC(=O)Nc2cc(C(C)(C)C)on2)cc1 [Compound N93] | 1 to 10 µM
76 | CC(C)(C)c1cc(NC(=O)Nc2ccc(NC(=O)c3cnnc4ccccc34)cc2)no1 [Compound N147] | 0.1 to 1 µM
77 | COc1ccc(-c2cc(C(=O)Nc3ccc(NC(=O)Nc4cc(C(C)(C)C)on4)cc3)c(C)o2)cc1 [Compound N118] | 1 to 10 µM
78 | CC(C)(C)c1cc(NC(=O)Nc2ccc(NC(=O)c3cccnc3)cc2)no1 [Compound N1] | 0.1 to 1 µM
79 | CC(C)(C)c1cc(NC(=O)Nc2ccc(NC(=O)c3cnc4cc(C(F)(F)F)ccc4c3O)cc2)no1 [Compound N146] | 1 to 10 µM
80 | C[C@H](NC(=O)c1ccc(NC(=O)Nc2cc(C(C)(C)C)on2)cc1)c1ccccc1 [Compound N88] | 0.1 to 1 µM
81 | CCOc1ccc(NC(=O)Nc2cc(C(C)(C)C)on2)cc1 [Compound G20] | < 0.1 µM
82 | CC(C)(C)c1cc(NC(=O)Nc2ccc(C(=O)NCCO)cc2)no1 [Compound N87] | 0.1 to 1 µM
83 | Cn1nc(C(C)(C)C)cc1NC(=O)Nc1cccc([N+](=O)[O-])c1 [Compound D21] | > 10 µM
84 | CC(C)(C)c1cc(NC(=O)Nc2ccncc2)no1 [Compound A53] | 1 to 10 µM
